Values quoted from earlier work in patent US7179253B2, “Method of tattoo removal” (3M Innovative Properties Company, priority 2003, dated 2007).

Test system: tattoo ink pigments in tattooed regions
Conditions: guinea pigs; topical 5% cream started within six hours of tattoo application, continued for seven days

Question: With CC(C)Cn1cnc2c(N)nc3ccccc3c21 [imiquimod, 1-(2-methylpropyl)-1H-imidazo[4,5-c]quinolin-4-amine] as the molecule, how does the “visible tattoo pigment in the tattooed regions at the conclusion of the treatment period” value read?
Answer: no pigment of any color was visible
